Source: patent publication US7019002B2, “Pyridopyrimidinones derivatives as telomerase inhibitors” (Pharmacia & Upjohn, S.p.A., priority 2001, dated 2006)

Molecular target: T1, telomerase enzyme (Homo sapiens, UniProt O14746)
T1 construct: telomerase enzyme diluted in a buffer
Assay: Flash Plate-based telomerase activity assay
Assay type: biochemical
Details: telomerase inhibition; two hours of incubation at 37°; Flash Plate readout, Sigma Plot fit
Experimental: The telomerase activity of compounds of the invention have been evaluated using a Flash Plate-based assay.
Briefly the assay mixture is constituted of: • telomerase enzyme diluted in a buffer, the composition of which has been selected to maintain the enzyme activity stable along the duration of the assay. • dNTPs, deoxynucleotides 5′-triphosphate. • biotinylated oligo as primer. • increasing concentrations of test compounds/positive control.
After two hours of incubation at 37° degrees the telomeric repeats added are evaluated by hybridization in solution with a 3′-labeled short oligonucleotide probe.
The extent of hybridization is then quantitated by transferring the reaction mixture in a streptavidin-coated flash plate, where the binding between biotin and streptavidin occurs.
The telomerase activity is proportional to the radioactivity measured and the inhibitory activity of the compounds is evaluated as IC50 using the Sigma Plot fit program.
With the above-described method IC50 values of the compounds of the present invention were determined.

T1 sequence (O14746 whole entry): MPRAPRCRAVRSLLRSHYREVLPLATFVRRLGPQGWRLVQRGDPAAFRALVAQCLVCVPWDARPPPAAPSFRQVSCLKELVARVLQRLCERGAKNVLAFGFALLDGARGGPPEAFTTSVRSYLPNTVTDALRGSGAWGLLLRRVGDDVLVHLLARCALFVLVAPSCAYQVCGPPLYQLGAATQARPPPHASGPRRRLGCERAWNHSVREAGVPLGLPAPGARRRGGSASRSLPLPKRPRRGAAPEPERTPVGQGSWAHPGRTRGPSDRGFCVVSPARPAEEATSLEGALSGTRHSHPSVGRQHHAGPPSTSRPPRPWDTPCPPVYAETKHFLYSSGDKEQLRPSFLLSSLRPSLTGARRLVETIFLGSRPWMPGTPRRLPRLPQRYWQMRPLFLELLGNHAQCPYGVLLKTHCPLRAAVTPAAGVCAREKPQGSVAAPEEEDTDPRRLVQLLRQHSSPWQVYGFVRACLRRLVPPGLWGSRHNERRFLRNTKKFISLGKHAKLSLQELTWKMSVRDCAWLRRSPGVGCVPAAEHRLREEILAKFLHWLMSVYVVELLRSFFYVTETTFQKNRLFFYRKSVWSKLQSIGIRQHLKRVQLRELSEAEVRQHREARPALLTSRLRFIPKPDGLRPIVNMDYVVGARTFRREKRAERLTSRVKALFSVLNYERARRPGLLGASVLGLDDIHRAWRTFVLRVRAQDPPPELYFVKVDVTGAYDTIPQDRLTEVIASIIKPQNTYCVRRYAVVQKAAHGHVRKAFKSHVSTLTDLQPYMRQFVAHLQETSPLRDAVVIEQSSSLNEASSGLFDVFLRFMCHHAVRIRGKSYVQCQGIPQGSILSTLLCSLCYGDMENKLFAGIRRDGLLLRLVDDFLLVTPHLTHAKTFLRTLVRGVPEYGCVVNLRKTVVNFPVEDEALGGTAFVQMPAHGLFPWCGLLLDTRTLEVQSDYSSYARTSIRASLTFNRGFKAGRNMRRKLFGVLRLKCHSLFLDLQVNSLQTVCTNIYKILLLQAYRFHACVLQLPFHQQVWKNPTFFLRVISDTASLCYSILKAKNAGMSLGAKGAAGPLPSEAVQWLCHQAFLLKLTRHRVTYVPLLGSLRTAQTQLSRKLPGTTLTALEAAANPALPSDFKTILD

| IC50 | Structure (SMILES) |
| --- | --- |
| 1.1 µM | Cc1nc(N2CCc3ccccc3C2)nc2c1ccc(=O)n2-c1ccc(C(=O)NC2CC2)cc1 [Compound 33, N-cyclopropyl-4-(2-(3,4-dihydro-2(1H)-isoquinolinyl)-4-methyl-7-oxopyrido[2,3-d]pyrimidin-8(7H)-yl)benzamide] |
| 3.9 µM | Cc1nc(N2CCN(c3ncccn3)CC2)nc2c1ccc(=O)n2-c1ccc(C(=O)NCc2ccccc2)cc1 [Compound 27, N-benzyl-4-(4-methyl-7-oxo-2-[4-(2-pyrimidinyl)-1-piperazinyl]pyrido[2,3-d]pyrimidin-8(7H)-yl)benzamide] |
| 1.4 µM | Cc1nc(N2CCc3ccccc3C2)nc2c1ccc(=O)n2-c1ccc(C(=O)NC2CCCCC2)cc1 [Compound 39, N-cyclohexyl-4-(2-(3,4-dihydro-2(1H)-isoquinolinyl)-4-methyl-7-oxopyrido[2,3-d]pyrimidin-8(7H)-yl)benzamide] |
| 2.9 µM | CCOC(=O)c1ccc(NC(=O)c2ccc(-n3c(=O)ccc4c(C)nc(N5CCc6ccccc6C5)nc43)cc2)cc1 [Compound 37, Ethyl 4-{[4-(2-(3,4-dihydro-2(1H)-isoquinolinyl)-4-methyl-7-oxopyrido[2,3-d]pyrimidin-8(7H)-yl)benzoyl]amino}benzoate] |
| 6.1 µM | Cc1nc(N2CCN(c3ccc(F)cc3)CC2)nc2c1ccc(=O)n2-c1ccc(C(=O)NCc2ccccc2)cc1 [Compound 20, N-benzyl-4-(2-[4-(4-fluorophenyl)-1-piperazinyl]-4-methyl-7-oxopyrido[2,3-d]pyrimidin-8(7H)-yl)benzamide] |
| 2 µM | COc1ccc(CNC(=O)c2ccc(-n3c(=O)ccc4c(C)nc(N5CCc6ccccc6C5)nc43)cc2)cc1OC [Compound 36, 4-(2-(3,4-dihydro-2(1H)-isoquinolinyl)-4-methyl-7-oxopyrido[2,3-d]pyrimidin-8(7H)-yl)-N-(3,4-dimethoxybenzyl)benzamide] |
| 8.2 µM | COc1ccc(NC(=O)c2ccc(-n3c(=O)ccc4c(C)nc(N5CCc6ccccc6C5)nc43)cc2)cc1OC [Compound 34, 4-(2-(3,4-dihydro-2(1H)-isoquinolinyl)-4-methyl-7-oxopyrido[2,3-d]pyrimidin-8(7H)-yl)-N-(3,4-dimethoxyphenyl)benzamide] |
| 1.9 µM | Cc1nc(N2CCc3ccccc3C2)nc2c1ccc(=O)n2-c1ccc(C(=O)N(C)C)cc1 [Compound 35, 4-(2-(3,4-dihydro-2(1H)-isoquinolinyl)-4-methyl-7-oxopyrido[2,3-d]pyrimidin-8(7H)-yl)-N,N-dimethylbenzamide] |
| 1.6 µM | Cc1nc(N2CCc3ccccc3C2)nc2c1ccc(=O)n2-c1ccc(C(=O)Nc2cccc(C#N)c2)cc1 [Compound 38, N-(3-cyanophenyl)-4-(2-(3,4-dihydro-2(1H)-isoquinolinyl)-4-methyl-7-oxopyrido[2,3-d]pyrimidin-8(7H)-yl)benzamide] |
| 3.8 µM | Cc1nc(N2CCN(c3ccccn3)CC2)nc2c1ccc(=O)n2-c1ccc(C(=O)NCc2ccco2)cc1 [Compound 24, N-(2-furylmethyl)-4-(4-methyl-7-oxo-2-[4-(2-pyridinyl)-1-piperazinyl]pyrido[2,3-d]pyrimidin-8(7H)-yl)benzamide] |
| 2.6 µM | Cc1nc(N2CCc3ccccc3C2)nc2c1ccc(=O)n2-c1ccc(C(=O)NCCC[N+](C)(C)[O-])cc1 [Compound 46, 4-(2-(3,4-dihydro-2(1H)-isoquinolinyl)-4-methyl-7-oxopyrido[2,3-d]pyrimidin-8(7H)-yl)-N-[3-(dimethylamino-N-oxido)propyl]benzamide] |
| 7.3 µM | Cc1nc(N2CCc3ccccc3C2)nc2c1ccc(=O)n2-c1ccc(C(=O)NCC[N+]2([O-])CCOCC2)cc1 [Compound 45, 4-[2-(3,4-Dihydro-1H-isoquinolin-2-yl)-4-methyl-7-oxo-7H-pyrido[2,3-d]pyrimidin-8-yl]-N-[2-(4-oxy-morpholin-4-yl)-ethyl]-benzamide] |

The remaining lines, values behind:

| Structure (SMILES) | IC50 |
| --- | --- |
| Cc1nc(N2CCN(c3ccc(F)cc3)CC2)nc2c1ccc(=O)n2-c1ccc(C(=O)NCc2ccco2)cc1 [Compound 21, 4-(2-[4-(4-fluorophenyl)-1-piperazinyl]-4-methyl-7-oxopyrido[2,3-d]pyrimidin-8(7H)-yl)-N-(2-furylmethyl)benzamide] | 21.8 µM |
| COc1ccc(CNC(=O)c2ccc(-n3c(=O)ccc4c(C)nc(N5CCN(c6ccccn6)CC5)nc43)cc2)cc1OC [Compound 25, N-(3,4-dimethoxybenzyl)-4-(4-methyl-7-oxo-2-[4-(2-pyridinyl)-1-piperazinyl]pyrido[2,3-d]pyrimidin-8(7H)-yl)benzamide] | 1.7 µM |
| Cc1nc(N2CCN(c3ncccn3)CC2)nc2c1ccc(=O)n2-c1ccc(C(=O)NCc2ccc(F)cc2F)cc1 [Compound 31, N-(2,4-difluorobenzyl)-4-(4-methyl-7-oxo-2-[4-(2-pyrimidinyl)-1-piperazinyl]pyrido[2,3-d]pyrimidin-8(7H)-yl)benzamide] | 9.4 µM |
| Cc1nc(NCC(C)C)nc2c1ccc(=O)n2-c1ccc(C(=O)Nc2ccccc2)cc1 [Compound 44, 4-(2-Isobutylamino-4-methyl-7-oxo-7H-pyrido[2,3-d]pyrimidin-8-yl)-N-phenyl-benzamide] | 19.1 µM |
| Cc1nc(N2CCN(c3ncccn3)CC2)nc2c1ccc(=O)n2-c1ccc(C(=O)NCc2cccc3ccccc23)cc1 [Compound 32, 4-(4-methyl-7-oxo-2-[4-(2-pyrimidinyl)-1-piperazinyl]pyrido[2,3-d]pyrimidin-8(7H)-yl)-N-(1-naphthylmethyl)benzamide] | 1.25 µM |
| CCCCCCCCNC(=O)c1ccc(-n2c(=O)ccc3c(C)nc(NCC(C)C)nc32)cc1 [Compound 43, 4-(2-Isobutylamino-4-methyl-7-oxo-7H-pyrido[2,3-d]pyrimidin-8-yl)-N-octyl-benzamide] | 6.1 µM |
| COC(=O)c1ccc(Nc2nc(C)c3ccc(=O)n(-c4ccc(C(=O)OC)cc4)c3n2)cc1 [Compound 41, methyl 4-({8-[4-(methoxycarbonyl)phenyl]-4-methyl-7-oxo-7,8-dihydropyrido[2,3-d]pyrimidin-2-yl}amino)benzoate] | 3.1 µM |
| Cc1nc(N2CCN(c3ncccn3)CC2)nc2c1ccc(=O)n2-c1ccc(C(=O)NCc2cccnc2)cc1 [Compound 30, 4-(4-methyl-7-oxo-2-[4-(2-pyrimidinyl)-1-piperazinyl]pyrido[2,3-d]pyrimidin-8(7H)-yl)-N-(3-pyridinylmethyl)benzamide] | 9.4 µM |
| Cc1nc(N2CCN(c3ncccn3)CC2)nc2c1ccc(=O)n2-c1ccc(C(=O)NCc2ccco2)cc1 [Compound 28, N-(2-furylmethyl)-4-(4-methyl-7-oxo-2-[4-(2-pyrimidinyl)-1-piperazinyl]pyrido[2,3-d]pyrimidin-8(7H)-yl)benzamide] | 16.6 µM |
| CCOC(=O)c1ccc(Nc2nc(C)c3ccc(=O)n(-c4ccc(C(=O)OCC)cc4)c3n2)cc1 [Compound 42, Ethyl 4-({8-[4-(ethoxycarbonyl)phenyl]-4-methyl-7-oxo-7,8-dihydropyrido[2,3-d]pyrimidin-2-yl}amino)benzoate] | 4.6 µM |
